Target: kappa opioid receptor (KOR) (Homo sapiens, UniProt P41145)
Experiment: GTPγS assay, antagonism of U69, […], concentration-response
Format: biochemical

Sequence of kappa opioid receptor (KOR) (P41145 whole entry): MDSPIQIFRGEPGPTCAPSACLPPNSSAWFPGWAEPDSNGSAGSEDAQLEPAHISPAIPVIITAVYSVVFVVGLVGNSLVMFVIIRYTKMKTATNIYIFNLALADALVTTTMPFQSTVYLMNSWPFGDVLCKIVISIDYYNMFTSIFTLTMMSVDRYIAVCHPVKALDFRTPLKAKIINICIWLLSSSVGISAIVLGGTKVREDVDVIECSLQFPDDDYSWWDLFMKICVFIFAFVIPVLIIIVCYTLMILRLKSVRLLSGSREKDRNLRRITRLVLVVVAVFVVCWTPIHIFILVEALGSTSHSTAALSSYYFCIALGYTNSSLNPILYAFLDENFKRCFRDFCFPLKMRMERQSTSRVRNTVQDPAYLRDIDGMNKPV

IC50 | Structure (SMILES)
2620 nM | COc1ccc(N2CCN(CCCNC(=O)CN3C(=O)[C@@H]4CCCN4c4cc(C)cnc43)CC2)cc1 [compound 27, (S)-N-(3-(4-(4-Methoxyphenyl)piperazin-1-yl)propyl)-2-(2-methyl-6-oxo-6a,7,8,9-tetrahydropyrido[2,3-e]pyrrolo[1,2-a]pyrazin-5(6H)-yl)acetamide]
433 nM | COc1ccc(N2CCN(CCCNC(=O)CN3C(=O)[C@H](CC(C)C)Nc4cc(C)cnc43)CC2)cc1 [compound 29, (S)-2-(2-Isobutyl-7-methyl-3-oxo-2,3-dihydropyrido[2,3-b]-pyrazin-4(1H)-yl)-N-(3-(4-(4-methoxyphenyl)piperazin-1-yl)propyl)-acetamide]
906 nM | COc1ccc(N2CCN(CCCNC(=O)CN3C(=O)C4CCCCN4c4cc(C)cnc43)CC2)cc1 (racemic) [compound 28, N-(3-(4-(4-Methoxyphenyl)piperazin-1-yl)propyl)-2-(2-methyl-6-oxo-6,6a,7,8,9,10-hexahydro-5H-dipyrido[1,2-a:2′,3′-e]pyrazin-5-yl)acetamide]
2820 nM | COc1ccc(N2CCN(CCCNC(=O)CN3C(=O)[C@@H]4CCCN4c4c(C)ccnc43)CC2)cc1 [compound 26, (S)-N-(3-(4-(4-Methoxyphenyl)piperazin-1-yl)propyl)-2-(1-methyl-6-oxo-6a,7,8,9-tetrahydropyrido[2,3-e]pyrrolo[1,2-a]pyrazin-5(6H)-yl)acetamide]
